Data on six molecules can be found in ChEMBL document CHEMBL5465560, “Selectivity Literature for EUbOPEN Chemogenomic Library” (2024).

In general, IC50 refers to the midpoint of a concentration-inhibition curve. Read a low IC50 as greater potency in that assay.

In test [1] the target is T1, Phosphatidylinositol 4,5-bisphosphate 3-kinase catalytic subunit delta isoform (Homo sapiens) (UniProt O00329).
T1 sequence (whole entry): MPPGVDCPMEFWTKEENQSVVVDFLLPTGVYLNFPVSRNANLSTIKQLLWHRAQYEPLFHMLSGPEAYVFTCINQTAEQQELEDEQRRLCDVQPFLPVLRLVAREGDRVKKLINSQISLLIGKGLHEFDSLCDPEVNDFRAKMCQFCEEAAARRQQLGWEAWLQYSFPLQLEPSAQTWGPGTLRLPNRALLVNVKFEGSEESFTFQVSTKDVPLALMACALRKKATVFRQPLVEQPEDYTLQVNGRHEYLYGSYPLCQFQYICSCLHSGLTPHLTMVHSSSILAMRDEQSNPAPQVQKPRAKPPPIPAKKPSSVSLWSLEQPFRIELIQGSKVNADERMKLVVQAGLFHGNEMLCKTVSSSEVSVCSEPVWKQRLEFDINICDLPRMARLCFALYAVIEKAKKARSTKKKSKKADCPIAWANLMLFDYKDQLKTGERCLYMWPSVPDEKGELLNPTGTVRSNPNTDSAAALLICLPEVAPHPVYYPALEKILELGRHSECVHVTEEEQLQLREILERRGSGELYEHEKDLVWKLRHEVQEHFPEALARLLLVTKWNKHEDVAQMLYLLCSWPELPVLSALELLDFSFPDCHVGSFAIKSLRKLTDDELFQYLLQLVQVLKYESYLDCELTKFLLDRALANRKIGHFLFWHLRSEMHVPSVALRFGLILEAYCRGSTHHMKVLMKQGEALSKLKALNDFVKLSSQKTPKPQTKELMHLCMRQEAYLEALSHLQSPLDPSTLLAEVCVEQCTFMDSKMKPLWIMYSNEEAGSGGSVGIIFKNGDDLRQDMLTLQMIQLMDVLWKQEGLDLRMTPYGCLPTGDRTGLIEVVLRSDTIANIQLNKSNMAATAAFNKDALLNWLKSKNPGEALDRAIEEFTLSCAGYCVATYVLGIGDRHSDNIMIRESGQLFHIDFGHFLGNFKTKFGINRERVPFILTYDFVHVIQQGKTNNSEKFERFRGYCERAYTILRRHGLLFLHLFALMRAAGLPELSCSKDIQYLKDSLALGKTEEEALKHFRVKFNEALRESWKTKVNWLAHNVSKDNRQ
Nature of the test: Selectivity interaction (Adapta Assay) EUB0001632a PIK3CD. To be noted: at 10 µM.

The target of test [2] is T2, Serine/threonine-protein kinase LATS1 (Homo sapiens) (UniProt O95835).
T2 sequence (whole entry): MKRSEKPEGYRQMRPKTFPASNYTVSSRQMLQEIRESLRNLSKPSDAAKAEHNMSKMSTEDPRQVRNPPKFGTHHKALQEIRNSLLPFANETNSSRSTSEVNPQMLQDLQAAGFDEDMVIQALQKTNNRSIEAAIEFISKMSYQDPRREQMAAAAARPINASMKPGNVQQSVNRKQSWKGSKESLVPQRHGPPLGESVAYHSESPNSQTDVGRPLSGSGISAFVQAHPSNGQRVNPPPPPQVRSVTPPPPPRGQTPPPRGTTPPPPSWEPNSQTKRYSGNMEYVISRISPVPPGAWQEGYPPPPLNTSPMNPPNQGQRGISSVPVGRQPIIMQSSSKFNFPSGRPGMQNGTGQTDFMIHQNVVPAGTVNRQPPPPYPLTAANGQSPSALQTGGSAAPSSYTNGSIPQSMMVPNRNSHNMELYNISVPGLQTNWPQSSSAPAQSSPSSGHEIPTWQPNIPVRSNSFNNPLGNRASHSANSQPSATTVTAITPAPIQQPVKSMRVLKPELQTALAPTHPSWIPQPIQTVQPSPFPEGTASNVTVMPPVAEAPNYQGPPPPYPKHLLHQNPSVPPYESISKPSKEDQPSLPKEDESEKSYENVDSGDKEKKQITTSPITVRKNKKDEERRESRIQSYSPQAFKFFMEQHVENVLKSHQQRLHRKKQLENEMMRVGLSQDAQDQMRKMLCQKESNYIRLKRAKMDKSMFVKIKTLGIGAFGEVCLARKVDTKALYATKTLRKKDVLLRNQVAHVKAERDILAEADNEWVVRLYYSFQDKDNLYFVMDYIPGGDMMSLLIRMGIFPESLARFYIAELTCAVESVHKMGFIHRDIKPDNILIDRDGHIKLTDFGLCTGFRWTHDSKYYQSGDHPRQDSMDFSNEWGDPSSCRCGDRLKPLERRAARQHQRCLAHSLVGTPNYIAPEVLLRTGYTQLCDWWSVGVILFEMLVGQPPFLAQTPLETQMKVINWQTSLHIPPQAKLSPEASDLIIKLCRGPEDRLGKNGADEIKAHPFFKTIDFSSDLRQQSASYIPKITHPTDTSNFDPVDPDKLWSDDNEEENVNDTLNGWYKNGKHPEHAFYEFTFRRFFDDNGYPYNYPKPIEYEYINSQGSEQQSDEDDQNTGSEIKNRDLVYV
Nature of the test: Selectivity interaction (KinomeScan (DiscoverX)) EUB0000607a LATS1. To be noted: at 10 µM.

Test [3] deals with Serine/threonine-protein kinase 38 (Homo sapiens) (UniProt Q15208). Nature of the test: Selectivity interaction (KinomeScan (DiscoverX)) EUB0000607a STK38. To be noted: at 10 µM.
Test [4] deals with Ribosomal protein S6 kinase alpha-2 (Homo sapiens) (UniProt Q15349). To be noted: at 10 µM.
For test [5], the target named is Calcium/calmodulin-dependent protein kinase type 1 (Homo sapiens) (UniProt Q14012). Nature of the test: Selectivity interaction (Ambit KINOMEscan and KiNATiv profiling in Jurkat cells) EUB0000090b CAMK1. In kind it is cell-based. To be noted: at 1 µM.
The target of test [6] is T3, Serine/threonine-protein kinase Chk1 (Homo sapiens) (UniProt O14757).
T3 sequence (whole entry): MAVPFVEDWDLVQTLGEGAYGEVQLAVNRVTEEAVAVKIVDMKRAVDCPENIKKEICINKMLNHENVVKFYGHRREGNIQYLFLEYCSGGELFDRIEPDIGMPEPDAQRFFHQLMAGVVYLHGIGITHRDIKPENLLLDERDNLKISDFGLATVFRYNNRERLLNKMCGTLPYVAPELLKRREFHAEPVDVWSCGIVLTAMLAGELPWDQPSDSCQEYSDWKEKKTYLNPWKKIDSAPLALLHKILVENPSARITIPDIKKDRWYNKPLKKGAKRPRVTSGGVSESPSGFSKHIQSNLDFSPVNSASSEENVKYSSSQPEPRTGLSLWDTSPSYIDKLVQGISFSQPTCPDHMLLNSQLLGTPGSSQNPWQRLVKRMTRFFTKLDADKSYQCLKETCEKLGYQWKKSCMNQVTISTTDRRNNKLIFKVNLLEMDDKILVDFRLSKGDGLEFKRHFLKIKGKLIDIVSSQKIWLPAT
Nature of the test: Selectivity interaction (Ambit KINOMEscan and KiNATiv profiling in Jurkat cells) EUB0000090b CHEK1. In kind it is cell-based. To be noted: at 1 µM.

For test [7], the target named is Tyrosine-protein kinase Lck (Homo sapiens, UniProt P06239).
Test [8] addresses Cyclin-dependent kinase 2 (Homo sapiens, UniProt P24941). Kind of test: Selectivity interaction (KinomeScan (DiscoverX)) EUB0000229b CDK2. To be noted: at 10 µM.

The structures appear in SMILES notation.

Chain of Serine/threonine-protein kinase 38 (Homo sapiens) (Q15208 2-465 limits assumed): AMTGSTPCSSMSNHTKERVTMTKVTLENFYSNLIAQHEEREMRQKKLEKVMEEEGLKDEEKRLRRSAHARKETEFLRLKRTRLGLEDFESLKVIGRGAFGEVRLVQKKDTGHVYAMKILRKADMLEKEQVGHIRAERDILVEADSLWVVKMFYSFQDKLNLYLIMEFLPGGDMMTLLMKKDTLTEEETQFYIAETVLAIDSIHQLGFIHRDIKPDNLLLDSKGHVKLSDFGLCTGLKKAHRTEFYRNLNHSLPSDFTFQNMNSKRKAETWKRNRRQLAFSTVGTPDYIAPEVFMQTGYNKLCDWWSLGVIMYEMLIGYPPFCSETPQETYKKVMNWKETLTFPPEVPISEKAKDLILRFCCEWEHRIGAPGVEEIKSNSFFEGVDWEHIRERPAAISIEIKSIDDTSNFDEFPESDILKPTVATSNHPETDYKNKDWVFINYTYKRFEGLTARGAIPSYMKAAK
Chain of Tyrosine-protein kinase Lck (P06239 whole entry): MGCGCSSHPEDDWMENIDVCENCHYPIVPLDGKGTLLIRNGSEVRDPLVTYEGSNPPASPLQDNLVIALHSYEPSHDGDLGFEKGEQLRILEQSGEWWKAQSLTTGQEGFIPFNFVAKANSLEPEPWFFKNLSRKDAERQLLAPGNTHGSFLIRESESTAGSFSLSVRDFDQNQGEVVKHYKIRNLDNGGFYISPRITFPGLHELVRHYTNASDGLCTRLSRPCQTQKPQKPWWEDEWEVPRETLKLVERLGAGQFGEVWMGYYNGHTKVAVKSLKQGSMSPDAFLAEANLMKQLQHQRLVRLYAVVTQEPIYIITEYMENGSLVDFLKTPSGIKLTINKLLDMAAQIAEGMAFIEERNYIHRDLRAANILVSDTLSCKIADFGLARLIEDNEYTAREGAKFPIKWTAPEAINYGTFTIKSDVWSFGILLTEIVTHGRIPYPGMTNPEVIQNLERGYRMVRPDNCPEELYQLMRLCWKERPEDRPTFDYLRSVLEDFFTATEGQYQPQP
Chain of Ribosomal protein S6 kinase alpha-2 (Homo sapiens) (Q15349 whole entry): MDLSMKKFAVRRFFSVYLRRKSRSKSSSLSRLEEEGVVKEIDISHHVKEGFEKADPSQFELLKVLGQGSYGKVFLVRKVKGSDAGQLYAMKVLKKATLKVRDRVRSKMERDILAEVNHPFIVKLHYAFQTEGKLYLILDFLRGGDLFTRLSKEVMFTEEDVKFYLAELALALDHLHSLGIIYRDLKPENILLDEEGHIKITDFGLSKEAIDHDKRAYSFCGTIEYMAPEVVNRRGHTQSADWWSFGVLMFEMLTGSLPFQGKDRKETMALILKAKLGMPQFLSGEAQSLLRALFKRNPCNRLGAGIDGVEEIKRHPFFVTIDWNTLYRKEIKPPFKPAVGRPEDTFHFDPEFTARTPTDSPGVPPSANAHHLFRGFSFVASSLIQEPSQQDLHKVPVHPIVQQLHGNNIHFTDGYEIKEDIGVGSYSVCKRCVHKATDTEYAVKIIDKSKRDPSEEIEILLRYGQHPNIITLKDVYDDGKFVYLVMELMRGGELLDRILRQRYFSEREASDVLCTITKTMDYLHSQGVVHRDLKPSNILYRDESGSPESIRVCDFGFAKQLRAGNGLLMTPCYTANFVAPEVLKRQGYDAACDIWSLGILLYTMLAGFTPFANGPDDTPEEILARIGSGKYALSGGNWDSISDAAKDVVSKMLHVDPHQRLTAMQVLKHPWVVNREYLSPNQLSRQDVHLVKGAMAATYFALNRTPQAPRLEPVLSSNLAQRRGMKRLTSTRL
Chain of Calcium/calmodulin-dependent protein kinase type 1 (Homo sapiens) (Q14012 whole entry, looked up): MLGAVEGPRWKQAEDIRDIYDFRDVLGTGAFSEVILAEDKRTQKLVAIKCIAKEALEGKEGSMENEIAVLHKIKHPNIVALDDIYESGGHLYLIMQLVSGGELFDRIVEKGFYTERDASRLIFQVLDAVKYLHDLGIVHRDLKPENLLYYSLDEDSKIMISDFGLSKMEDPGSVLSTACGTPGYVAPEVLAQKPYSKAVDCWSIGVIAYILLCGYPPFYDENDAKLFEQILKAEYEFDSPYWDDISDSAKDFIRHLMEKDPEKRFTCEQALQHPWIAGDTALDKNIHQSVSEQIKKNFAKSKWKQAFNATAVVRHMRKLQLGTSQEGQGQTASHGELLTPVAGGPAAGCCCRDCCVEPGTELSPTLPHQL

The molecule `Cn1cc(-n2cnc3c(NCc4nc5cc(Cl)c(Cl)cc5[nH]4)nc(N4CCOCC4)nc32)cn1` had a % of inhibition in test [1] of 66.6%.

Take `CNC(=O)Nc1ccc(-c2nc(N3CC4CCC(C3)O4)c3cnn(C4CCC5(CC4)OCCO5)c3n2)cc1`: the % of control in test [2] was found to be 95%; in test [3] it was 100%.

Turning to `Cc1cc([C@@H](C)Nc2ccccc2C(=O)O)c2nc(N3CCOCC3)cc(=O)n2c1` [AZD-6482], the % of control in test [4] amounted to 97%.

Take `CN(C)C/C=C/C(=O)Nc1ccc(C(=O)N2CCCC(Nc3ncc(Cl)c(-c4c[nH]c5ccccc45)n3)C2)cc1` (stereo not drawn): the % of control in test [5] is 93%; in test [6], 89%.

`CCc1cccc(CC)c1NC(=O)c1nn(C)c2c1CCc1cnc(Nc3ccc(C(=O)NC4CCN(C)CC4)cc3OC(F)(F)F)nc1-2` had an IC50 in test [7] greater than 10 µM.

As for `COc1cc(N(C)c2ccnc3ccc(C(F)(F)F)cc23)cc(OC)c1OC`, in test [8], the % binding is 100%.
